This note sets out measurements from ChEMBL document CHEMBL1153992, “2-Azidoalkoxy-7-hydro-8-oxoadenine derivatives as TLR7 agonists inducing dendritic cell maturation” (Bioorg Med Chem Lett, 2009).

Molecules are shown by their SMILES. The source made the active and inactive calls. The rule behind the calls is not given here.

Assay type in all cases: cell-based
Experiment [1] concerns the target T1, Toll-like receptor 7 (Mus musculus) (UniProt P58681).
T1 sequence (whole entry): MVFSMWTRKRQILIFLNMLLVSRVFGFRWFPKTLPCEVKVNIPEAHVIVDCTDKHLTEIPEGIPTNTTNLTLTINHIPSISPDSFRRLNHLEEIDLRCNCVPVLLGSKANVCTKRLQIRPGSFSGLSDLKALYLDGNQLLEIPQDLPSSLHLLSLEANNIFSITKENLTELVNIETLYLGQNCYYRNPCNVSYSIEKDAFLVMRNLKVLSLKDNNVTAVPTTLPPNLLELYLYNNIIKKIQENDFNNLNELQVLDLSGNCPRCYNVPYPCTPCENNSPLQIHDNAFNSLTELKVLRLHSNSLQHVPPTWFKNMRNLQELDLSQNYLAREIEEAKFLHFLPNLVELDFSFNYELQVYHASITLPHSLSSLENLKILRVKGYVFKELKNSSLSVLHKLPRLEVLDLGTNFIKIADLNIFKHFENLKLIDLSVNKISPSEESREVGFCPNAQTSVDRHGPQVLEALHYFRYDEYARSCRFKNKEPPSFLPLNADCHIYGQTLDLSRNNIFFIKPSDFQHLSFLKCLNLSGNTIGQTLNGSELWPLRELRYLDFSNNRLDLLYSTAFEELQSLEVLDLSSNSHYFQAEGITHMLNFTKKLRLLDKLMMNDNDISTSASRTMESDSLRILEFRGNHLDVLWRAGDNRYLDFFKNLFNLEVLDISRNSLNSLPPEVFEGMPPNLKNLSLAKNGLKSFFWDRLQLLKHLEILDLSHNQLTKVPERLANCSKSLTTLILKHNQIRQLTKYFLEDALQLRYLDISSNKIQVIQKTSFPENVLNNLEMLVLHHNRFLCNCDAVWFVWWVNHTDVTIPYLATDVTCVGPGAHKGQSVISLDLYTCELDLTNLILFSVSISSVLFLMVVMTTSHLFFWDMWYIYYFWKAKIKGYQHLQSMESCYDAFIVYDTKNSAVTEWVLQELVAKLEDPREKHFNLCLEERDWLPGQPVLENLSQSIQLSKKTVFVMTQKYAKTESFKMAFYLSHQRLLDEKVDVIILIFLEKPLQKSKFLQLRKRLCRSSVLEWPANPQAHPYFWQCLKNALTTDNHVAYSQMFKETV
Kind of experiment: Induction of TLR7 receptor-mediated C57BL/6 mouse BMD cells activation assessed as upregulation of CD86 at 1 uM after 48 hrs by flow cytometry. (A flow cytometer gives signals particle by particle.)

Experiment [2] addresses T1, Toll-like receptor 7 (Mus musculus). Kind of experiment: Induction of TLR7 receptor-mediated C57BL/6 mouse BMD cells activation assessed as upregulation of MHC class-2 at 1 uM after 48 hrs by flow cytometry.
The target is the same in experiment [3]. Kind of experiment: Induction of TLR7 receptor-mediated C57BL/6 mouse BMD cells activation assessed as upregulation of CD40 at 1 uM after 48 hrs by flow cytometry.
Experiment [4] has the same target. As to the kind of experiment: Induction of TLR7 receptor-mediated C57BL/6 mouse BMD cells activation assessed as IL12 production at 5 uM after 24 hrs by ELISA. For orientation: ELISA stands for enzyme-linked immunosorbent assay.
Experiment [5] has the same target. Kind of experiment: Induction of TLR7 receptor-mediated C57BL/6 mouse BMD cells activation assessed as IL12 production at 0.1 uM after 24 hrs by ELISA.
Experiment [6] shares this target. As to the kind of experiment: Induction of TLR7 receptor-mediated C57BL/6 mouse BMD cells activation assessed as IL12 production at 10 nM after 24 hrs by ELISA.

As to `[N-]=[N+]=NCCOc1nc(N)c2[nH]c(=O)n(Cc3ccccc3)c2n1`, the result in experiment [1], in experiment [2], in experiment [3], in experiment [4] and in experiment [5] was Active.

As to `CCOCc1nc2c(N)nc3ccccc3c2n1CC(C)(C)O`, the outcome in experiment [1], in experiment [2], in experiment [3] and in experiment [4] was Active.

Take `[N-]=[N+]=NCCCOc1nc(N)c2[nH]c(=O)n(Cc3ccccc3)c2n1`: the outcome in experiment [1], in experiment [2], in experiment [3], in experiment [4] and in experiment [5] was Active.

On to `CCCCOc1nc(N)c2[nH]c(=O)n(Cc3ccccc3)c2n1`, for which the result in experiment [1], in experiment [2], in experiment [3], in experiment [4] and in experiment [6] was Active.

Take `[N-]=[N+]=NCCCCCCOc1nc(N)c2[nH]c(=O)n(Cc3ccccc3)c2n1`: the outcome in experiment [1], in experiment [2], in experiment [3] and in experiment [4] was Active.

With `[N-]=[N+]=NCCOCCOc1nc(N)c2[nH]c(=O)n(Cc3ccccc3)c2n1`, the outcome in experiment [1], in experiment [2], in experiment [3] and in experiment [4] was Active.

As to `[N-]=[N+]=NCCCCCOc1nc(N)c2[nH]c(=O)n(Cc3ccccc3)c2n1`, the outcome in experiment [1], in experiment [2], in experiment [3] and in experiment [4] was Active.

Regarding `[N-]=[N+]=NCCOCCOCCOc1nc(N)c2[nH]c(=O)n(Cc3ccccc3)c2n1`, the outcome in experiment [1], in experiment [2] and in experiment [3] was inactive.

On to `COCCOc1nc(N)c2[nH]c(=O)n(Cc3ccccc3)c2n1`, for which the outcome in experiment [1], in experiment [2], in experiment [3] and in experiment [4] was Active.

Regarding `[N-]=[N+]=NCCCCOc1nc(N)c2[nH]c(=O)n(Cc3ccccc3)c2n1`, the outcome in experiment [1], in experiment [2], in experiment [3] and in experiment [4] was Active.
